These results are taken from patent publication US9938322B2, “β-hairpin peptidomimetics” (priority 2013, dated 2018).

The structures appear in SMILES notation. Where a SMILES comes first, the peptide text is derived from it. [ ]: non-standard residue; d: D form. Abu(4,4,4-F3) = N[C@@H](CC(F)(F)F)C(=O)O; Cha = N[C@@H](CC1CCCCC1)C(=O)O; Chg = N[C@H](C(=O)O)C1CCCCC1; Tle = CC(C)(C)[C@H](N)C(=O)O; dDab = NCC[C@@H](N)C(=O)O; Orn = NCCC[C@H](N)C(=O)O; Dab = NCC[C@H](N)C(=O)O; Nva = CCC[C@H](N)C(=O)O; Dap = NC[C@H](N)C(=O)O

The subject of the data set is human red blood cells (hRBC). Briefly: Hemolysis of human red blood cells. The note with it: red cells of human, 1 h, 100. It counts as cell-based. In short, it runs like this:
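Washed fresh human erythrocytes (20% v/v, about 0.9×10^9 cells/ml final) incubated with peptide at 100 μg/ml for 1 h at 37° C with shaking. Supernatant OD540 read; hemolysis expressed relative to 2.5% Triton X-100 (100%) and PBS with 0.001% acetic acid (0%).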
As for `CC[C@H](C)[C@@H]1NC(=O)[C@@H]2CCCN2C(=O)[C@H]2CCCN2C(=O)[C@H](CO)NC(=O)[C@H](C)NC(=O)[C@H](C(C)(C)C)NC(=O)[C@H](CCN)NC(=O)[C@H](Cc2c[nH]c3ccccc23)NC(=O)[C@H](CCN)NC(=O)[C@H](CCN)NC(=O)[C@H](CCCN)NC(=O)[C@H](CCN)NC(=O)[C@H](CC2CCCCC2)NC(=O)[C@H](CO)NC1=O` [compound 142] (cyclo(IS[Cha][Dab][Orn][Dab][Dab]W[Dab][Tle]AS[dP]P)), the “Hemolysis at 100 μg/ml” value came out at 1%.
Turning to `CC(C)C[C@@H]1NC(=O)[C@@H]2CCCN2C(=O)[C@H]2CCCN2C(=O)[C@H](CO)NC(=O)[C@H](CO)NC(=O)[C@H](C(C)(C)C)NC(=O)[C@H](CCN)NC(=O)[C@H](Cc2c[nH]c3ccccc23)NC(=O)[C@H](CCN)NC(=O)[C@H](CCN)NC(=O)[C@H](CCCN)NC(=O)[C@H](CCN)NC(=O)[C@H](CC2CCCCC2)NC(=O)[C@H](CO)NC1=O` [compound 143] (cyclo(LS[Cha][Dab][Orn][Dab][Dab]W[Dab][Tle]SS[dP]P)), the “Hemolysis at 100 μg/ml” value was 0%.
In the case of `CCC[C@@H]1NC(=O)[C@@H]2CCCN2C(=O)[C@H]2CCCN2C(=O)[C@H](CO)NC(=O)[C@H](CO)NC(=O)[C@H](C(C)(C)C)NC(=O)[C@H](CCN)NC(=O)[C@H](Cc2c[nH]c3ccccc23)NC(=O)[C@H](CCN)NC(=O)[C@@H](CCN)NC(=O)[C@H](CCCN)NC(=O)[C@H](CCN)NC(=O)[C@H](CC2CCCCC2)NC(=O)[C@H](CO)NC1=O` [compound 144] (cyclo([Nva]S[Cha][Dab][Orn][dDab][Dab]W[Dab][Tle]SS[dP]P)) it was 7%; in that of `CC(C)C[C@@H]1NC(=O)[C@@H]2CCCN2C(=O)[C@H]2CCCN2C(=O)[C@H](CO)NC(=O)[C@H](C)NC(=O)[C@H](C(C)(C)C)NC(=O)[C@H](CCN)NC(=O)[C@H](Cc2c[nH]c3ccccc23)NC(=O)[C@H](CCN)NC(=O)[C@@H](CCN)NC(=O)[C@H](CCCN)NC(=O)[C@H](CCN)NC(=O)[C@H](Cc2ccc(O)cc2)NC(=O)[C@H](CN)NC1=O` [compound 145] (cyclo(L[Dap]Y[Dab][Orn][dDab][Dab]W[Dab][Tle]AS[dP]P)), 0%; in that of `CC[C@H](C)[C@@H]1NC(=O)[C@@H]2CCCN2C(=O)[C@H]2CCCN2C(=O)[C@H](CO)NC(=O)[C@H](C)NC(=O)[C@H](C(C)(C)C)NC(=O)[C@H](CCN)NC(=O)[C@H](Cc2c[nH]c3ccccc23)NC(=O)[C@H](CCN)NC(=O)[C@@H](CCN)NC(=O)[C@H](CCCN)NC(=O)[C@H](CCN)NC(=O)[C@H](Cc2ccc(O)cc2)NC(=O)[C@H](CN)NC1=O` [compound 146] (cyclo(I[Dap]Y[Dab][Orn][dDab][Dab]W[Dab][Tle]AS[dP]P)), 0%.
For `CC(C)C[C@@H]1NC(=O)[C@@H]2CCCN2C(=O)[C@H]2CCCN2C(=O)[C@H](CO)NC(=O)[C@H](C)NC(=O)[C@H](C(C)(C)C)NC(=O)[C@H](CCN)NC(=O)[C@H](Cc2c[nH]c3ccccc23)NC(=O)[C@H](CCN)NC(=O)[C@@H](CCN)NC(=O)[C@H](CCCN)NC(=O)[C@H](CCN)NC(=O)[C@H](Cc2c[nH]c3ccccc23)NC(=O)[C@H](CN)NC1=O` [compound 147] (cyclo(L[Dap]W[Dab][Orn][dDab][Dab]W[Dab][Tle]AS[dP]P)), the “Hemolysis at 100 μg/ml” value was 0%.
Regarding `CC(C)C[C@@H]1NC(=O)[C@@H]2CCCN2C(=O)[C@H]2CCCN2C(=O)[C@H](CO)NC(=O)[C@H]([C@@H](C)O)NC(=O)[C@H](C(C)(C)C)NC(=O)[C@H](CCN)NC(=O)[C@H](Cc2c[nH]c3ccccc23)NC(=O)[C@H](CCN)NC(=O)[C@@H](CCN)NC(=O)[C@H](CCCN)NC(=O)[C@H](CCN)NC(=O)[C@H](Cc2ccc(O)cc2)NC(=O)[C@H](CCN)NC1=O` [compound 148] (cyclo(L[Dab]Y[Dab][Orn][dDab][Dab]W[Dab][Tle]TS[dP]P)), the “Hemolysis at 100 μg/ml” value worked out at 1%.
With `CC(C)C[C@@H]1NC(=O)[C@@H]2CCCN2C(=O)[C@H]2CCCN2C(=O)[C@H]([C@@H](C)O)NC(=O)[C@H](CO)NC(=O)[C@H](C(C)(C)C)NC(=O)[C@H](CCN)NC(=O)[C@H](Cc2c[nH]c3ccccc23)NC(=O)[C@H](CCN)NC(=O)[C@@H](CCN)NC(=O)[C@H](CCN)NC(=O)[C@H](CCN)NC(=O)[C@H](Cc2ccc(O)cc2)NC(=O)[C@H](CN)NC1=O` [compound 149] (cyclo(L[Dap]Y[Dab][Dab][dDab][Dab]W[Dab][Tle]ST[dP]P)), the “Hemolysis at 100 μg/ml” value is on record as 4%.
For the molecule `CCC[C@@H]1NC(=O)[C@@H]2CCCN2C(=O)[C@H]2CCCN2C(=O)[C@H](CO)NC(=O)[C@H](C)NC(=O)[C@H](C2CCCCC2)NC(=O)[C@H](CCN)NC(=O)[C@H](Cc2c[nH]c3ccccc23)NC(=O)[C@H](CCN)NC(=O)[C@@H](CCN)NC(=O)[C@H](CCCN)NC(=O)[C@H](CCN)NC(=O)[C@H](CC2CCCCC2)NC(=O)[C@H](C)NC1=O` [compound 150] (cyclo([Nva]A[Cha][Dab][Orn][dDab][Dab]W[Dab][Chg]AS[dP]P)), the “Hemolysis at 100 μg/ml” value worked out at 4%.
On to `CC[C@H](C)[C@@H]1NC(=O)[C@@H]2CCCN2C(=O)[C@H]2CCCN2C(=O)[C@H](CO)NC(=O)[C@H](CO)NC(=O)[C@H](C(C)(C)C)NC(=O)[C@H](CCN)NC(=O)[C@H](Cc2c[nH]c3ccccc23)NC(=O)[C@H](CCN)NC(=O)[C@@H](CCN)NC(=O)[C@H](CCCN)NC(=O)[C@H](CCN)NC(=O)[C@H](CC2CCCCC2)NC(=O)[C@H](C)NC1=O` [compound 151] (cyclo(IA[Cha][Dab][Orn][dDab][Dab]W[Dab][Tle]SS[dP]P)), for which the “Hemolysis at 100 μg/ml” value came out at 7%.
Turning to `CC(C)C[C@@H]1NC(=O)[C@@H]2CCCN2C(=O)[C@H]2CCCN2C(=O)[C@H](CO)NC(=O)[C@H](CO)NC(=O)[C@H](C(C)(C)C)NC(=O)[C@H](CCN)NC(=O)[C@H](Cc2c[nH]c3ccccc23)NC(=O)[C@H](CCN)NC(=O)[C@@H](CCN)NC(=O)[C@H](CCCN)NC(=O)[C@H](CCN)NC(=O)[C@H](CC2CCCCC2)NC(=O)[C@H](C)NC1=O` [compound 152] (cyclo(LA[Cha][Dab][Orn][dDab][Dab]W[Dab][Tle]SS[dP]P)), the “Hemolysis at 100 μg/ml” value is 5%.
Turning to `C[C@@H]1NC(=O)[C@H](C(C)(C)C)NC(=O)[C@H](CCN)NC(=O)[C@H](Cc2c[nH]c3ccccc23)NC(=O)[C@H](CCN)NC(=O)[C@@H](CCN)NC(=O)[C@H](CCCN)NC(=O)[C@H](CCN)NC(=O)[C@H](Cc2ccc(O)cc2)NC(=O)[C@H](CO)NC(=O)[C@H](Cc2ccc(O)cc2)NC(=O)[C@@H]2CCCN2C(=O)[C@H]2CCCN2C(=O)[C@H](Cc2ccc(O)cc2)NC1=O` [compound 153] (cyclo(YSY[Dab][Orn][dDab][Dab]W[Dab][Tle]AY[dP]P)), the “Hemolysis at 100 μg/ml” value is reported as 2%.
Turning to `CC(C)C[C@@H]1NC(=O)[C@@H]2CCCN2C(=O)[C@H]2CCCN2C(=O)[C@H](CO)NC(=O)[C@@H](C)NC(=O)[C@H](C(C)(C)C)NC(=O)[C@H](CCN)NC(=O)[C@H](Cc2c[nH]c3ccccc23)NC(=O)[C@H](CCN)NC(=O)[C@@H](CCN)NC(=O)[C@H](CCCN)NC(=O)[C@H](CCN)NC(=O)[C@H](Cc2ccc(O)cc2)NC(=O)[C@H](CO)NC1=O` [compound 154] (cyclo(LSY[Dab][Orn][dDab][Dab]W[Dab][Tle][dA]S[dP]P)), the “Hemolysis at 100 μg/ml” value was determined as 0%.
For `CC(C)C[C@@H]1NC(=O)[C@@H]2CCCN2C(=O)[C@H]2CCCN2C(=O)[C@H](CO)NC(=O)[C@H](C)NC(=O)[C@H](C(C)(C)C)NC(=O)[C@H](CCN)NC(=O)[C@H](Cc2c[nH]c3ccccc23)NC(=O)[C@@H](CCN)NC(=O)[C@@H](CCN)NC(=O)[C@H](CCCN)NC(=O)[C@H](CCN)NC(=O)[C@H](Cc2ccc(O)cc2)NC(=O)[C@H](CO)NC1=O` [compound 155] (cyclo(LSY[Dab][Orn][dDab][dDab]W[Dab][Tle]AS[dP]P)), the “Hemolysis at 100 μg/ml” value is on record as 0%.
For `C[C@@H]1NC(=O)[C@H](C(C)(C)C)NC(=O)[C@H](CCN)NC(=O)[C@H](Cc2c[nH]c3ccccc23)NC(=O)[C@H](CCN)NC(=O)[C@@H](CCN)NC(=O)[C@H](CCCN)NC(=O)[C@H](CCN)NC(=O)[C@H](Cc2ccc(O)cc2)NC(=O)[C@H](CO)NC(=O)[C@H](CC(F)(F)F)NC(=O)[C@@H]2CCCN2C(=O)[C@H]2CCCN2C(=O)[C@H](CO)NC1=O` [compound 156] (cyclo([Abu(4,4,4-F3)]SY[Dab][Orn][dDab][Dab]W[Dab][Tle]AS[dP]P)), the “Hemolysis at 100 μg/ml” value stood at 1%.
Turning to `CC(C)C[C@@H]1NC(=O)[C@@H]2CCCN2C(=O)[C@H]2CCCN2C(=O)[C@H](CO)NC(=O)[C@H](CCN)NC(=O)[C@H](C(C)(C)C)NC(=O)[C@H](CCN)NC(=O)[C@H](Cc2c[nH]c3ccccc23)NC(=O)[C@H](CCN)NC(=O)[C@@H](CCN)NC(=O)[C@H](CCCN)NC(=O)[C@H](CCN)NC(=O)[C@H](Cc2ccc(O)cc2)NC(=O)CNC1=O` [compound 157] (cyclo(LGY[Dab][Orn][dDab][Dab]W[Dab][Tle][Dab]S[dP]P)), the “Hemolysis at 100 μg/ml” value stood at 1%.
In the case of `C[C@@H]1NC(=O)[C@H](C(C)(C)C)NC(=O)[C@H](CCN)NC(=O)[C@H](Cc2c[nH]c3ccccc23)NC(=O)[C@H](CCN)NC(=O)[C@@H](CCN)NC(=O)[C@H](CCCN)NC(=O)[C@H](CCN)NC(=O)[C@H](Cc2ccc(O)cc2)NC(=O)[C@H](CO)NC(=O)[C@H]([C@@H](C)O)NC(=O)[C@@H]2CCCN2C(=O)[C@H]2CCCN2C(=O)[C@H](Cc2ccc(O)cc2)NC1=O` [compound 158] (cyclo(TSY[Dab][Orn][dDab][Dab]W[Dab][Tle]AY[dP]P)) it was 1%; in that of `CC(C)C[C@@H]1NC(=O)[C@@H]2CCCN2C(=O)[C@H]2CCCN2C(=O)[C@H](CO)NC(=O)[C@H](CC(=O)O)NC(=O)[C@H](C(C)(C)C)NC(=O)[C@H](CCN)NC(=O)[C@H](Cc2c[nH]c3ccccc23)NC(=O)[C@H](CCN)NC(=O)[C@@H](CCN)NC(=O)[C@H](CCCN)NC(=O)[C@H](CCN)NC(=O)[C@H](Cc2ccc(O)cc2)NC(=O)[C@H](CCN)NC1=O` [compound 159] (cyclo(L[Dab]Y[Dab][Orn][dDab][Dab]W[Dab][Tle]DS[dP]P)), 1%.
